Experiments:
[1] = test system: human embryonic stem cell derived neural stem cells (NSCs); assay: Neural stem cell proliferation assay (neurogenesis assay, ATP levels by CellTiterGlo); type: cell-based; settings: Homo sapiens, Neural stem cell, 96 h; compound concentration at which 150% activity of control (100%) is reached; NSC proliferation by ATP (CellTiterGlo) after 4 days incubation; dose response 8 μM to 8 nM
Protocol: Neural Stem Cell Proliferation Assay
Neurogenic properties of small molecules are determined based on the proliferation of human embryonic stem cell derived neural stem cells (NSCs) which were derived via a dual smad inhibition as previously described (Chambers, S. M., et al., Highly efficient neural conversion of human ES and iPS cells by dual inhibition of SMAD signaling, Nature biotechnology, 2009. 27(3): p. 275-80.)
Compounds respond is measured by the increase in cells based on ATP levels (Promega:CellTiterGlo®) after an incubation period of 4 days.
NSCs are thawed and expanded over 3 passages. On the 14th day, NSCs are seeded in Polyornithin/Laminin coated 384 well plates at a cell density of 21,000 cells/cm^2 in a media volume of 38 μl.
4 hours after cell seeding, compound solutions are added at a volume of 2 μl. Stock solutions of the compounds (water, 5% DMSO) are diluted to obtain a dose response (11 points, dilution factor is 2), ranging from 8 μM to 8 nM. Controls are run to consistently determine the neurogenic properties of the cells: • Negative (neutral) control is cell culture Media (final DMSO concentration: 0.25%). • Positive controls are: • 1. cell culture Media+100 ng/ml FGF2 (final DMSO concentration: 0.1%) • 2. cell culture Media+20 ng/ml EGF (final DMSO concentration: 0.1%) • 3. cell culture Media+100 ng/ml Wnt3a (final DMSO concentration: 0.1%)
After 4 days incubation at 37° C., 5% CO2, the amount of ATP per well is quantified. The ATP concentration is proportional to the cell number. ATP is quantified by using the Promega CellTiterGlo® kit. The CellTiterGlo® reagents contain a cell lysis buffer, a thermo stable luciferase (UltraGlo™ recombinant luciferase), magnesium and luciferin. Luciferin reacts with ATP producing oxyluciferin, AMP and light. The luminescence signal is proportional to the ATP content.
The value of negative (neutral) control is determined for each assay plate by taking the average of 16 negative control wells. The neurogenic compound response is calculated for each compound as (compound/Negative Control)*100.
The values of EC150 from the dose response curve are determined for each test compound. The EC150 is the compound concentration at which 150% activity of control (100%) is reached.

Row | SMILES | melting point | EC (150% of control) [1]
1 | Cc1c(C(N)=O)n(C)c2c(-c3ccc(F)cc3F)cc(Cl)cc12 [Example 29, 5-Chloro-7-(2,4-difluorophenyl)-1,3-dimethylindole-2-carboxamide] | 220 °C | 0.23 µM
2 | COc1ccc(-c2cc(F)cc3c(C)c(C(N)=O)[nH]c23)cc1 [Example 76, 5-Fluoro-7-(4-methoxyphenyl)-3-methyl-1H-indole-2-carboxamide] | 217 °C | 0.009 µM
3 | N#Cc1cc(-c2ccc(C(F)(F)F)cc2)c2[nH]c(C(N)=O)cc2c1 [Example 36, 5-Cyano-7-[4-(trifluoromethyl)phenyl]-1H-indole-2-carboxamide] | 277.5 °C | 0.1 µM
4 | Cc1c(C(N)=O)n(C)c2c(-c3ccc(Cl)cc3Cl)cc(F)cc12 [Example 61, 7-(2,4-Dichlorophenyl)-5-fluoro-1,3-dimethylindole-2-carboxamide] | 169 °C | 0.21 µM
5 | Cn1c(C(N)=O)cc2cc(C#N)cc(-c3ccc(F)cc3F)c21 [Example 62, 5-Cyano-7-(2,4-difluorophenyl)-1-methylindole-2-carboxamide] | 206.5 °C | 0.12 µM
6 | Cc1c(C(N)=O)[nH]c2c(-c3ccc(Cl)c(F)c3)cc(Cl)cc12 [Example 31, 5-Chloro-7-(4-chloro-3-fluorophenyl)-3-methyl-1H-indole-2-carboxamide] | 283 °C | 0.43 µM
7 | Cc1c(C(N)=O)[nH]c2c(-c3ccc(F)c(F)c3)cc(F)cc12 [Example 47, 7-(3,4-Difluorophenyl)-5-fluoro-3-methyl-1H-indole-2-carboxamide] | 208 °C | 0.052 µM
8 | N#Cc1cc(-c2ccc([N+](=O)[O-])cc2)c2[nH]c(C(N)=O)cc2c1 [Example 68, 5-Cyano-7-(4-nitrophenyl)-1H-indole-2-carboxamide] | 269 °C | 0.071 µM
9 | COc1ccc(-c2cc(C#N)cc3cc(C(N)=O)n(C)c23)cc1 [Example 71, 5-Cyano-7-(4-methoxyphenyl)-1-methylindole-2-carboxamide] | 206.5 °C | 0.21 µM
10 | Cc1c(C(N)=O)[nH]c2c(-c3ccc(F)cc3)cc(F)cc12 [Example 45, 5-Fluoro-7-(4-fluorophenyl)-3-methyl-1H-indole-2-carboxamide] | 219 °C | 0.068 µM
11 | N#Cc1cc(-c2ccc(Cl)cc2F)c2[nH]c(C(N)=O)cc2c1 [Example 57, 7-(4-Chloro-2-fluorophenyl)-5-cyano-1H-indole-2-carboxamide] | 286.5 °C | 0.066 µM

— US9464049B2, “Indole-carboxamides” (Hoffmann-La Roche Inc., priority 2013, dated 2016)
